Tests used:
[1] = Thermal stress stability of the compounds, purity by HPLC before and after storage; type: physicochemical; conditions: unit size 1 mg; for Purity Before thermal stress: packed under argon, HPLC before storage; for Purity After thermal stress: under argon, stored at 50° C. for 14 days, HPLC
Experimental: The inventive compounds were evaluated for stability compared to commercial dyes. All compounds were packed under argon as 1 mg portions in plastic vials. The vials were sealed under argon with a drying pad in an aluminium coated pouch, and then stored at 50° C. for 14 days. The results of the stability study for selected compounds are shown below where the determination of purity was by HPLC before and after storage.

mouse IgG immunoglobulin = experiment: Functional plate assay of compound-PEG4-GAM conjugates (RFU); type: binding; conditions: conjugates at 4 μg/ml on mouse IgG coated plates; FIGS. 13-14
Experimental: Performance of compound-GAM conjugates and compound-GAR conjugates was evaluated in a functional assay. Wells of a 96 white opaque plate were coated with target proteins mouse IgG immunoglobulin or rabbit IgG immunoglobulin. One hundred μl mouse or rabbit IgG at a concentration of 10 μg/ml was applied to the corresponding wells in columns 1 and 2. The target proteins were serially diluted 1:1 from the wells in columns 2 to 11 using 100 μl PBS. One hundred μl of samples from the wells in column 11 were discarded. One hundred μl PBS was added to the wells in column 12. The plates were incubated overnight at 4° C. and then blocked 2×200 μl with Thermo Scientific SuperBlock® Blocking Buffer. […] The plates were washed with 2×200 μl with PBS-Tween and 1×200 μl with PBS and filled with PBS buffer (100 μl/well) prior to scanning on Tecan Safire using 562 nmexcitation/576 nmemission to detect fluorescence intensity and DyLight 649 and DyLight 650 plated were measured using 654 nmexcitation/673 nmemission.
As shown in FIGS. 13-14, the fluorescence intensity, also termed the RFU, was compared for compound-PEG4-GAM conjugates where the compound was DyLight 549-phosphine (blue; FIG. 13), 550 Compound 1-phosphine (red; FIG. 13), DyLight 649-phosphine (red; FIG. 14) and 650 Compound 1-phosphine (blue; FIG. 14) at various concentrations. […]

A549 cell lysate = A549 cell lysate labeling with azido-sugars, SDS-PAGE; type: cell-based, human
Experimental: The inventive and commercial compounds were examined in A549 cell lysate labeling experiments using azido-sugars. Cell extracts were prepared from A549 incubated with azido-sugar N-azidoacetylgalactosamine […], N-azidoacetylglucosamine (GlcNAz) or N-azidoacetylmannosamine […]. The cell extracts were incubated with either 550 Compound 1-phosphine, 650 Compound 1-phosphine, CLICK-iT® Alexa555-Alkyne, or CLICK-iT® Alexa Fluor 647 DIBO Alkyne and analyzed by SDS-PAGE. The resulting lysates were separated by electrophoresis. 10 μg protein was loaded onto a PAGE gel (4-12% Bis-Tris gel).
The resulting lysates were separated by electrophoresis. […]
FIGS. 63-64 graphically represent band intensity of FIGS. 61-62. […] Relative fluorescence intensity for the gel image of FIG. 61 comparing Alexa555 (copper) and 550 Compound 1-phosphine (FIG. 63) and for the gel image of FIG. 62 comparing Alexa647 (copper-less) and 650 Compound 1-phosphine (FIG. 64).

A549 cells = experiment: Azido-sugar cell labeling, A549 cells; type: cell-based, human; conditions: N-azidoacetyl galactosamine, 100 μM dye-phosphine 3 h 37° C.
Source text: (§1) The inventive and commercial compounds were examined in cell labeling experiments using azido-sugars and adenocarcinomic human alveolar basal epithelial (A549) cells, human osteosarcoma (U2OS) cells, and immortalized proximal tubule epithelial (HK2) cells. As is known in the art, introduction of labeled sugar moieties results in incorporation of the labeled sugar moieties in various cellular molecules and locations.
Metabolically incorporated azido-labeled sugars, N-azidoacetyl galactosamine, N-azidoacetyl glucosamine, and N-azidoacetyl mannosamine was detected in vivo. Cells were incubated with 40 μM azido-sugar in cell culture media for 72 hours and the live cells were incubated with 100 μM of dye-labeled phosphine. The cells were then washed, fixed with 4% paraformaldehyde and counterstained with Hoechst 33342 which labels nuclei. For fixed cells, the cells were incubated with the azido-sugar, fixed with 4% paraformaldehyde, permeabilized with 0.1% Triton X-100, and incubated with 100 μM of dye-labeled phosphine. […]
Fluorescence intensity was measured in each spot identified using a specific Bio-Application with the ArrayScanVTI image analysis software. […]

U2OS cells = experiment: Azido-sugar cell labeling, U2OS cells; type: cell-based, human; conditions: 100 μM dye-phosphine
Source text: as §1
Metabolically incorporated azido-labeled sugars, N-azidoacetyl galactosamine, N-azidoacetyl glucosamine, and N-azidoacetyl mannosamine was detected in vivo. Cells were incubated with 40 μM azido-sugar in cell culture media for 72 hours and the live cells were incubated with 100 μM of dye-labeled phosphine. The cells were then washed, fixed with 4% paraformaldehyde and counterstained with Hoechst 33342 which labels nuclei. For fixed cells, the cells were incubated with the azido-sugar, fixed with 4% paraformaldehyde, permeabilized with 0.1% Triton X-100, and incubated with 100 μM of dye-labeled phosphine. In live cell labeling using the phosphine labeling reaction used 100 μM of the dye-labeled phosphine for three hours at 37° C., and the CLICK-iT® labeling reaction, using DIBO-Alexa dye, used 30 μM of the DIBO Alexa dye for one hour at room temperature (RT). […]

HK2 cells = experiment: Azido-sugar cell labeling, HK2 cells; type: cell-based; conditions: 100 μM dye-phosphine
Source text: as §1
Metabolically incorporated azido-labeled sugars, N-azidoacetyl galactosamine, N-azidoacetyl glucosamine, and N-azidoacetyl mannosamine was detected in vivo. Cells were incubated with 40 μM azido-sugar in cell culture media for 72 hours and the live cells were incubated with 100 μM of dye-labeled phosphine. The cells were then washed, fixed with 4% paraformaldehyde and counterstained with Hoechst 33342 which labels nuclei. For fixed cells, the cells were incubated with the azido-sugar, fixed with 4% paraformaldehyde, permeabilized with 0.1% Triton X-100, and incubated with 100 μM of dye-labeled phosphine. In live cell labeling using the phosphine labeling reaction used 100 μM of the dye-labeled phosphine for three hours at 37° C., and the CLICK-iT® labeling reaction, using DIBO-Alexa dye, used 30 μM of the DIBO Alexa dye for one hour at room temperature (RT). In fixed cell labeling, the phosphine labeling reaction used 100 μM of the dye-labeled phosphine for three hours at 37° C., and the CLICK-IT® labeling reaction, using DIBO-Alexa dye, used 50 μM of the DIBO Alexa dye for one hour at RT in the presence of 5 μM copper for one hour at RT in the absence of copper.
HK2 cells, either live (column A) or fixed (column B), were labeled with N-azidoacetyl galactosamine followed by labeling with 550 Compound 1-phosphine (row 1), 650 Compound 1-phosphine (row 2), or Copperless CLICK-iT® using DIBO-Alexa647 (row 3), as shown in FIG. 52. A graphical representation of the spot average intensity for the images of FIG. 52 is shown for labeling live (FIG. 53) and fixed (FIG. 54) cells. […]

[2] = system: secretory vesicles in HK2, A549, and U2OS cells; experiment: Secretory vesicle labeling with Az-ManNAc; type: cell-based; conditions: N-azidoacetyl mannosamine; co-localized with PGP9.5
Source text: The inventive and commercial compounds were used to label secretory vesicles in various cell types using azido-sugars. […] Co-localization of Man-650 Compound 1-phosphine, and this labeling was co-localized with PGP9.5, a secreted protein, as shown in FIGS. 65B and 66B (red arrows).

Substance | Purity Before thermal stress [1] [%] | Purity After thermal stress [1] [%] | fluorescence intensity (RFU) of compound-PEG4-GAM conjugates compared with DyLight 549 / DyLight 649 conjugate (mouse IgG immunoglobulin) | band intensity of labeled lysate versus CLICK-iT Alexa 555-alkyne (A549 cell lysate; A549 lysates, three azido-sugars, 10 μg protein per lane, FIG. 63) | live cell labeling (spot average intensity) versus Alexa647-DIBO CLICK-iT (A549 cells) | live cell labeling (spot average intensity) versus Alexa647-DIBO CLICK-iT (U2OS cells; N-azidoacetyl glucosamine) | live cell labeling (spot average intensity) versus Alexa647-DIBO CLICK-iT (U2OS cells; N-azidoacetyl mannosamine) | live cell labeling (spot average intensity) versus Alexa647-DIBO CLICK-iT (HK2 cells; N-azidoacetyl galactosamine) | live cell labeling (spot average intensity) versus Alexa647-DIBO CLICK-iT (HK2 cells; N-azidoacetyl glucosamine) | live cell labeling (spot average intensity) versus Alexa647-DIBO CLICK-iT (HK2 cells; N-azidoacetyl mannosamine) | labeling pattern of lysate on gel (A549 cell lysate; A549 lysates with Az-GalNAc, Az-GlcNAc or Az-ManNAc, FIG. 62) | secretory vesicle labeling [2]
2-((1E,3E)-3-(1-(6-(2-(3-(diphenylphosphino)-4-(methoxycarbonyl)benzamido)ethylamino)-6-oxohexyl)-3-methyl-5-sulfonato-3-(3-sulfonatopropyl)indolin-2-ylidene)prop-1-enyl)-1-(2-methoxyethyl)-3-methyl-3-(3-sulfonatopropyl)-3H-indolium-5-sulfonate [550 Compound 1-phosphine] | 96 | 96 | similar | better than CLICK-iT® Alexa 555-alkyne |  |  |  |  |  |  |  | 
2-((1E,3E,5E)-5-(1-(6-(2-(3-(diphenylphosphino)-4-(methoxycarbonyl)benzamido)ethylamino)-6-oxohexyl)-3-methyl-5-sulfonato-3-(3-sulfonatopropyl)indolin-2-ylidene)penta-1,3-dienyl)-1-(2-methoxyethyl)-3-methyl-3-(3-sulfonatopropyl)-3H-indolium-5-sulfonate [650 Compound 1-phosphine] | 97 | 96 | similar |  | better than Alexa647-DIBO CLICK-iT® labeling | better than Alexa647-DIBO CLICK-iT® labeling | better than Alexa647-DIBO CLICK-iT® labeling | better than Alexa647-DIBO CLICK-iT® labeling | better than Alexa647-DI BO CLICK-iT® labeling | better than Alexa647-DIBO CLICK-iT® labeling | different labeling pattern for each of the three incorporated azido-sugars | resulted in labeling of secretory vesicles

Source: US9365598B2, “Phosphine derivatives of fluorescent compounds” (Pierce Biotechnology, Inc., priority 2011, dated 2016)
